Source: patent US10526291B2, “Potent dual BRD4-kinase inhibitors as cancer therapeutics” (H. Lee Moffitt Cancer Center and Research Institute, Inc., priority 2014, dated 2020)
≈ marks a conversion by molar mass, not a printed value. Where “and” joins values, the source holds several entries; their conditions need not be identical. Identical values can stand only once. Like-named read-outs stand apart in the source and are kept apart here.

Legend:
[1] = test system: c-Myc in MM.1S cells; details: literature; cited from earlier work
[2] = target: T1, BRD4 (Homo sapiens, UniProt O60885); assay: Differential Scanning Fluorimetry (DSF), stability of BRD4 upon ligand binding; details: for IC50: estimated
Experimental: (§1) DSF=Differential Scanning Fluorimetry; provides a measure of the increased stability of BRD4 upon ligand binding The DSF experiment was run at 100 μM protein, 4 μM compound and 2% DMSO.

[3] = target: T2, JAK2 (Homo sapiens, UniProt O60674); assay: JAK2 IC50 (RB, commercial kinase panel); type: biochemical
T2 construct: purchased
T2 sequence (O60674 whole entry): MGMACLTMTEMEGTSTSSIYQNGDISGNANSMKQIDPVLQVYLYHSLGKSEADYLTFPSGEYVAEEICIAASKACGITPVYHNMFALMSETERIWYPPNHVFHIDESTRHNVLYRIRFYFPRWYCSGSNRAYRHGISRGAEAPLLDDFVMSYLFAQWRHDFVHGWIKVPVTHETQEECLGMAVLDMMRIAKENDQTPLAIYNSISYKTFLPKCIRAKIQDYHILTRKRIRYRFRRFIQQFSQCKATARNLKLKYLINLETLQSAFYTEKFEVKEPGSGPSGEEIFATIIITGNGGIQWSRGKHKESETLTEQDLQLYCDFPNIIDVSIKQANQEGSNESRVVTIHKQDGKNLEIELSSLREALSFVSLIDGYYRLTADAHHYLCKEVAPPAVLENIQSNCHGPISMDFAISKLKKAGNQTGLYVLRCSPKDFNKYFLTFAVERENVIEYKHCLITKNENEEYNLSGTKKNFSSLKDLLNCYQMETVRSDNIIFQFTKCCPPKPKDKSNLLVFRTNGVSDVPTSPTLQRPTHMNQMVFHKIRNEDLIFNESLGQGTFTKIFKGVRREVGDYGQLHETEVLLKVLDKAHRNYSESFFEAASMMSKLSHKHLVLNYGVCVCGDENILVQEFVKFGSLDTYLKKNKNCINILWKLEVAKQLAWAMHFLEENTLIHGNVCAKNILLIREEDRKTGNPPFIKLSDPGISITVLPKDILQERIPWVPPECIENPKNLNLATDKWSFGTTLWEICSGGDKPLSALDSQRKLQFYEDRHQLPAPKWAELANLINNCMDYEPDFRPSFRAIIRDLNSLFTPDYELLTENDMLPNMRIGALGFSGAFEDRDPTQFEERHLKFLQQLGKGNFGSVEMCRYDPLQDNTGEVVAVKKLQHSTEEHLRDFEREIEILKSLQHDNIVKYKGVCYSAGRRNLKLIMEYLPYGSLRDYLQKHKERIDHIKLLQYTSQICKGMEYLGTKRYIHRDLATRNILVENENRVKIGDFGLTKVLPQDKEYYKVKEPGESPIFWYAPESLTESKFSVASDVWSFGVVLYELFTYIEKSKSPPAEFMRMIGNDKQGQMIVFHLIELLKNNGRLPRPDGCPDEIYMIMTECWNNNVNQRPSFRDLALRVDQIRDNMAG

[4] = target: T3, JAK3 (Homo sapiens, UniProt P52333); assay: JAK3 IC50 (RB, commercial kinase panel); type: biochemical
T3 construct: purchased
T3 sequence (P52333 1-1124): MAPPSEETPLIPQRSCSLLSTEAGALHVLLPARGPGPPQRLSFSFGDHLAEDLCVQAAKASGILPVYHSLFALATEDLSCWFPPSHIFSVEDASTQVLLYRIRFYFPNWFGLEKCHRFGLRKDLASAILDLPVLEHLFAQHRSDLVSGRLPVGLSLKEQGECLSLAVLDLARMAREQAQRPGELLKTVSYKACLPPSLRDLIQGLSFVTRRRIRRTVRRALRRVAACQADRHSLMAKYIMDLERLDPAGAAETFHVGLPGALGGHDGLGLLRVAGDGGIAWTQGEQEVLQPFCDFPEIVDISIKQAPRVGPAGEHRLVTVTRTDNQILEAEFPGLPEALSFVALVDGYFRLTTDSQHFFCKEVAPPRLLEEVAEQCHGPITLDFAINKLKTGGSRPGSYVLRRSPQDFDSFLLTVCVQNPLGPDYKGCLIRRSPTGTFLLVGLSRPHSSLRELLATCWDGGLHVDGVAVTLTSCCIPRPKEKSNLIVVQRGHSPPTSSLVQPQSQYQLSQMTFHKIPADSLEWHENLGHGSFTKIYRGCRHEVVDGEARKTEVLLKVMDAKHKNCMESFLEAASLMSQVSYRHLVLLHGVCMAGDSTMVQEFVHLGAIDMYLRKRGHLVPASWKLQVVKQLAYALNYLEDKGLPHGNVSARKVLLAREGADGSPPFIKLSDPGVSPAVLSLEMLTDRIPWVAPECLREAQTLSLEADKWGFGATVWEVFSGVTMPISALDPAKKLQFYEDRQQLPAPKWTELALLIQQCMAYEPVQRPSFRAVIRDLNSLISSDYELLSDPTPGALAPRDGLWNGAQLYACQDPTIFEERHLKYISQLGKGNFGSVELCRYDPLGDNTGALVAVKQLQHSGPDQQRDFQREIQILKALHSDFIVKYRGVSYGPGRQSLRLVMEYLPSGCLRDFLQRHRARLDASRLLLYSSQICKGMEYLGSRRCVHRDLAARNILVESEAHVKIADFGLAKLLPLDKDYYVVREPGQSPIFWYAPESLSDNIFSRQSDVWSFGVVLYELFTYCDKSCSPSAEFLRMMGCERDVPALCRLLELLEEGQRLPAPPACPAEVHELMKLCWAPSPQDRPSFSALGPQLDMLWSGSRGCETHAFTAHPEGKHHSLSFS

[5] = test system: MM.1S cells; assay: MM.1S cell survival, MTT assay; type: cell-based; details: Homo sapiens, MM1.S, 72 h, 72 hours compound exposure
[6] = target: T4, BRD2 (Homo sapiens, UniProt P25440); assay: BRD2 IC50 (RB, commercial BRD panel); type: binding
T4 construct: purchased
T4 sequence (P25440 whole entry): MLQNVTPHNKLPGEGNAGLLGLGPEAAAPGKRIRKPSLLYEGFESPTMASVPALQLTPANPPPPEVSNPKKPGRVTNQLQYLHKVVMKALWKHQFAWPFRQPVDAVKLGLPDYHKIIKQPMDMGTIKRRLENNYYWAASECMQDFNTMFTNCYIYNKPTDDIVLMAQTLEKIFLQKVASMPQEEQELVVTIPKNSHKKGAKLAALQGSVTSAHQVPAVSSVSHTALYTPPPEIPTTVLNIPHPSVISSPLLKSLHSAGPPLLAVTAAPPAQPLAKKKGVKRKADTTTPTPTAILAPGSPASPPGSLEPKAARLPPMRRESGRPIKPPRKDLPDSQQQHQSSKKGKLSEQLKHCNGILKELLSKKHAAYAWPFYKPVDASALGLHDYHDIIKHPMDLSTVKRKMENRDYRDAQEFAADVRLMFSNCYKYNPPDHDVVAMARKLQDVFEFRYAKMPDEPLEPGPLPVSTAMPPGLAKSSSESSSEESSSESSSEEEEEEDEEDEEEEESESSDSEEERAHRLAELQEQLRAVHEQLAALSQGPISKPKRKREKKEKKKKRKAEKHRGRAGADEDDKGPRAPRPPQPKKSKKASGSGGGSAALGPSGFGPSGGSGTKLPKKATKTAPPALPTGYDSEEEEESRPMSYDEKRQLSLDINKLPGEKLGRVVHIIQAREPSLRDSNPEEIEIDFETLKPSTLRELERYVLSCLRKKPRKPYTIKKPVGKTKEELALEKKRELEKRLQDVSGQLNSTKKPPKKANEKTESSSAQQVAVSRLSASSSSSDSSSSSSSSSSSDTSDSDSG

[7] = target: T5, BRDT (Homo sapiens, UniProt Q58F21); assay: BRDT IC50 (RB, commercial BRD panel); type: binding
T5 construct: purchased

[8] = target: T1, BRD4; assay: BRD4 IC50 (RB, commercial BRD panel); type: binding
[9] = target: T6, JAK1 (Homo sapiens, UniProt P23458); assay: JAK1 IC50 (RB, commercial kinase panel); type: biochemical
T6 construct: purchased
T6 sequence (P23458 whole entry): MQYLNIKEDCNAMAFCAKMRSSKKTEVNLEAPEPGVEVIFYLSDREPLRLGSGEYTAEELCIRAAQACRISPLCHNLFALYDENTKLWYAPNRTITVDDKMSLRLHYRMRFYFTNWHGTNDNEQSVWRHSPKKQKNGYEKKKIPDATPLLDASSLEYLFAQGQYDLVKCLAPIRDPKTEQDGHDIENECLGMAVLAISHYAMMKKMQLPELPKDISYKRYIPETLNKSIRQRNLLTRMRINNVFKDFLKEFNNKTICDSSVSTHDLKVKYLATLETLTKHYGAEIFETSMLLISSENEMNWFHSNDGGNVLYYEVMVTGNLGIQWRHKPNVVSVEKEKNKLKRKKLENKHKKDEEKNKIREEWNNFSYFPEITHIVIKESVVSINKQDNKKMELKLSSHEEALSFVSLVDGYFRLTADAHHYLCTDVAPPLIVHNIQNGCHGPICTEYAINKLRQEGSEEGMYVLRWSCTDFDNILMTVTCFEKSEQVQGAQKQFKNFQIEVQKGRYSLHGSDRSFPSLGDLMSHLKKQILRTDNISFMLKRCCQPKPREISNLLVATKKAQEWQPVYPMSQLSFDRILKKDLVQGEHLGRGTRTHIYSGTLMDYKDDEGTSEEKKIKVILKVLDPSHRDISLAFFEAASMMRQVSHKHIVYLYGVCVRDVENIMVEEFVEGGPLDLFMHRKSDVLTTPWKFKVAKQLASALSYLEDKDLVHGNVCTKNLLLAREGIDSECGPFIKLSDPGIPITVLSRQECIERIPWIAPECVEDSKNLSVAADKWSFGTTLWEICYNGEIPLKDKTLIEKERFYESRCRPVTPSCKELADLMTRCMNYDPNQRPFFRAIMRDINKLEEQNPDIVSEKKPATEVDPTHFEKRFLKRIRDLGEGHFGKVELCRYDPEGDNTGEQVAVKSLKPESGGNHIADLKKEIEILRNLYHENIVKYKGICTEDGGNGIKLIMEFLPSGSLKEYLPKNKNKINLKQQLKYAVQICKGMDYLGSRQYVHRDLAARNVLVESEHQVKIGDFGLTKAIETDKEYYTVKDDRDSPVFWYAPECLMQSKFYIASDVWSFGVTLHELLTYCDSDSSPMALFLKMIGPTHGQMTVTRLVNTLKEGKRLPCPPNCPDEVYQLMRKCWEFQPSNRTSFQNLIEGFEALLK

[10] = target: T7, BRD3 (Homo sapiens, UniProt Q15059); assay: BRD3 IC50 (RB, commercial BRD panel); type: binding
T7 construct: purchased
T7 sequence (Q15059 whole entry): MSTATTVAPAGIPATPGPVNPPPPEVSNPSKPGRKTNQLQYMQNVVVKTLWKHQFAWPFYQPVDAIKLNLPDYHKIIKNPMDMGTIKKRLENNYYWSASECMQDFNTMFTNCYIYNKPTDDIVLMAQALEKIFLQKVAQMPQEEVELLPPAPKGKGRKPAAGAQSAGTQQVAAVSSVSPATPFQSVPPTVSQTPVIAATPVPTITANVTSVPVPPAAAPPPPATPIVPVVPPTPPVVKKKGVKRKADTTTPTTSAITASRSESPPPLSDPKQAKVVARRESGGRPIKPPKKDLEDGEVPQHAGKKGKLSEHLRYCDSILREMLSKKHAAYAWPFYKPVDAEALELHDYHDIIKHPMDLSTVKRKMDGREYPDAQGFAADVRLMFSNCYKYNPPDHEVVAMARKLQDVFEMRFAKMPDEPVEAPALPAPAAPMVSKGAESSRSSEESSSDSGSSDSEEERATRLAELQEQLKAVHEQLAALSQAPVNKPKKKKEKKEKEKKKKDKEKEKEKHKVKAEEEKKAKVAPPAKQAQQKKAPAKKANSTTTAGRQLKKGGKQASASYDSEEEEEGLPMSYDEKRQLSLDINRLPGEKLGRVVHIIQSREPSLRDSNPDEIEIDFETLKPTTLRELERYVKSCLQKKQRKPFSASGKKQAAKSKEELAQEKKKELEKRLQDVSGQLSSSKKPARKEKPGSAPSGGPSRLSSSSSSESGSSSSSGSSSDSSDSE

[11] = test system: HEK293; assay: HEK293 cell IC50; type: cell-based; details: Homo sapiens
[12] = Solubility in PBS buffer; type: physicochemical
[13] = Precipitation in DSF buffer; type: physicochemical
Experimental: as §1

[14] = test system: MV4-11 AML cells; assay: MV-4-11 cell IC50 (antiproliferative activity); type: cell-based; details: Homo sapiens
Experimental: Cellular activity of promising compounds is assessed using MM.1S and MV4-11 AML cells using c-Myc levels as biomarker (6-12 hr treatment) and antiproliferative activity (48-72 hr treatment) as described (Ciceri et al., Dual kinase-bromodomain inhibitors for rationally designed polypharmacology. Nat Chem Biol 2014).

[15] = test system: UKE-1; assay: UKE-1 cell IC50; type: cell-based; details: UKE1
[16] = target: T8, FLT3 (Homo sapiens, UniProt P36888); assay: FLT3 IC50 (RB, commercial kinase panel); type: biochemical
T8 construct: purchased
T8 sequence (P36888 27-993): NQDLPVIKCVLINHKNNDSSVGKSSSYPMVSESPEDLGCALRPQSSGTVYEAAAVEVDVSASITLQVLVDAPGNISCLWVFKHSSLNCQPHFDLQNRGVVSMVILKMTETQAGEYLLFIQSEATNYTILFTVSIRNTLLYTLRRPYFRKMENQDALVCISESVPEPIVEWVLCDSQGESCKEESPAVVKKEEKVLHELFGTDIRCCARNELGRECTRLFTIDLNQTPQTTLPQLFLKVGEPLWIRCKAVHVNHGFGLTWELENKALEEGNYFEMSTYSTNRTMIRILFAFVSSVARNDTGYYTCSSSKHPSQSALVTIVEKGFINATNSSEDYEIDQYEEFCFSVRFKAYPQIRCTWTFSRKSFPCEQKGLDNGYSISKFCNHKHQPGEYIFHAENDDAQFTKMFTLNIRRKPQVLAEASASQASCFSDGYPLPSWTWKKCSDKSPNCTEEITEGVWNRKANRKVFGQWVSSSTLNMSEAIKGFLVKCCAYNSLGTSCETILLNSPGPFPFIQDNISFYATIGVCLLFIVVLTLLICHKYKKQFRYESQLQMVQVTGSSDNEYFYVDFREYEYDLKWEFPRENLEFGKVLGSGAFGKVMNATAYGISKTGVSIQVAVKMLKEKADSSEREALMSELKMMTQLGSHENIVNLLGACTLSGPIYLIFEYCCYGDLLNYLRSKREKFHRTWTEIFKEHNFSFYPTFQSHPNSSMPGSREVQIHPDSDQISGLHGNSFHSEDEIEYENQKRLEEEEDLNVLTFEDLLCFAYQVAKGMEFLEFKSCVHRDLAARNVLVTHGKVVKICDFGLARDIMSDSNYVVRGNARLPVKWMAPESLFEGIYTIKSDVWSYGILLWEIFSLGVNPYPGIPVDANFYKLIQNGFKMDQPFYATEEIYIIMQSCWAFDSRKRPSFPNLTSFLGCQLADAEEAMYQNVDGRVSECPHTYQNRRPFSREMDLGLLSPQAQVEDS

[17] = test system: SAOS-2; assay: SAOS-2 cell IC50; type: cell-based; details: Homo sapiens
[18] = 100 μM protein, 4 μM compound and 2% DMSO

For Cc1cnc(Nc2ccc(N3CCN(C)CC3)cc2)nc1Nc1cccc(S(=O)(=O)NC(C)(C)C)c1 [TG101209], the “downregulation of c-Myc” value [1] is listed as “strong downregulation of c-Myc”.
For COc1cc(Nc2nc(Nc3ccc(N4CCN(C)CC4)cc3)ncc2C)ccc1Cl, the ΔTm at 4 µM [2, 18] was 5.6 ± 0.082 °C, the IC50 [2] was 290 nM and the IC50 [3] was 0.69 nM. The IC50 [4] was 9.06 nM, the IC50 [5] was 420 nM and the IC50 [6] was 2800 nM. For the same molecule, the IC50 [7] was 1400 nM, the IC50 ([8]; read-out: BRD4 IC50) was 617 nM and the IC50 ([8]; read-out: BRD4 IC50 (RB)) was 617 nM. For the same molecule, the IC50 [9] was 1.83 nM, the IC50 [10] was 1140 nM and the IC50 [11] was 380 nM.
In the case of Cc1cnc(Nc2ccc(N3CCN(C)CC3)cc2)nc1Nc1ccc(Cl)c(NS(=O)(=O)C(C)(C)C)c1 [SG3-014B2.MSA], the Solubility ([12]; PBS buffer (15% HPCD)) is reported as “Solubility > 14.4 mg mg in 1 mL”, the Solubility ([12]; PBS buffer (~9.3% DMSO)) is reported as “DMSO) = 0.416 mg mg in 1 mL” and the Solubility ([12]; aqueous with cosolvent or surfactant or cyclodextrin, PBS buffer (~9.3% DMSO), read-out: Solubility) is reported as 650 µM (≈ 354 µg/mL).
For CC[C@@H]1C(=O)N(C)c2cnc(Nc3ccc(C(=O)NC4CCN(C)CC4)cc3OC)nc2N1C1CCCC1 [BI2536], the “downregulation of c-Myc” value [1] is listed as “strong downregulation of c-Myc”.
For Cc1cnc(Nc2ccc(OCCN3CCCC3)cc2)nc1Nc1cccc(S(=O)(=O)NC(C)(C)C)c1 [TG101348], the “downregulation of c-Myc” value [1] is given as “strong downregulation of c-Myc”.
With Cc1cnc(Nc2ccc(N3CCN(C)CC3)c(C(F)(F)F)c2)nc1Nc1ccc(Cl)c(NS(=O)(=O)C(C)(C)C)c1 the ΔTm at 4 µM [2, 18] was 2.46 ± 0.111 °C, the IC50 [2] was 4950 nM and the “Precipitation in DSF buffer” value [13] was “Precipitation interferes with the assay”.
Molecule CN1CCN(c2ccc(Nc3ncc(F)c(Nc4ccc(Cl)c(NS(=O)(=O)C(C)(C)C)c4)n3)cc2F)CC1 has a ΔTm at 4 µM [2, 18] of 0.57 ± 0.124 °C, an IC50 [2] of 16800 nM and an IC50 [5] of 160 nM. For the same molecule, the “Precipitation in DSF buffer” value [13] was “Precipitation observed in DSF buffer”.
With COc1cc(Nc2nc(Nc3ccc(N4CCN(C)CC4)cc3)nc(C)c2C)ccc1Cl the ΔTm at 4 µM [2, 18] was 4.1 ± 0.14 °C, the IC50 [2] was 930 nM and the IC50 [3] was 14000 nM. The IC50 [11] was 840 nM.
In the case of Cc1cnc(Nc2ccc(C3CCN(C)CC3)cc2)nc1Nc1ccc(Cl)c(NS(=O)(=O)C(C)(C)C)c1, the “DSF ΔTm (° C.)” value [2, 18] is reported as 10 ± 0.11 10 ± 0.11 °C, the ΔTm at 4 µM [2, 18] is reported as 10 ± 0.11 °C and the IC50 [2] is reported as 7.4 nM and 9.9 nM. The IC50 [14] was 98 nM and the IC50 [15] was 470 nM.
For Cc1cnc(Nc2ccc(N3CCN(C)CC3)cc2)nc1Nc1cccc(NS(=O)(=O)C(C)(C)C)c1, the ΔTm at 4 µM [2, 18] was 8.54 ± 0.088 °C, the IC50 [2] was 25 nM and the IC50 [4] was 91.4 nM. The IC50 [5] was 400 nM, the IC50 [6] was 625 nM and the IC50 [7] was 29.1 nM. For the same molecule, the IC50 ([8]; read-out: BRD4 IC50) was 10.2 nM, the IC50 [9] was 4.58 nM and the IC50 [16] was 0.917 nM. It also gave an IC50 [17] of 184 nM, an IC50 [15] of 260 nM and an IC50 [10] of 12.5 nM. It also gave an IC50 [11] of 1200 nM.
